Consider 104 compounds from PubChem BioAssay AID1996.

The structures appear in SMILES notation. Values after ≈ are worked out from the molar mass of the structure shown. A value given as a limit tells only on which side of the number the result lay.

For the data set the following is noted: buffer; pH 7.4; 200.0 µM.
Compound `O=C(O)C(=O)O.O=[N+]([O-])c1ccccc1CNCCc1c[nH]c2ccccc12` registered a solubility (kinetic) of 41.8 µg/mL. Regarding `COc1cc(OC)cc(C(=O)Nc2cc(C)on2)c1`, the solubility (kinetic) came out at 9.7 µg/mL (≈ 37 µM). The compound `COc1ccc(C(=O)NC(=S)N(C)C2CCCCC2)cc1Br` gave a kinetic solubility of 0.7 µg/mL (≈ 1.82 µM). For `COc1ccccc1CCn1cc(C#N)c(=O)[nH]c1=O`, the kinetic solubility is greater than 40.7 µg/mL. The compound `Cn1nccc1NC(=O)Nc1ccc(Cl)cc1` yielded a solubility (kinetic) greater than 37.6 µg/mL. The same measure for `OC(CN1CCN(Cc2ccccc2)CC1)c1ccccc1` (centres undefined): greater than 44.5 µg/mL; for `NS(=O)(=O)c1ccc(CCNC(=O)c2ccco2)cc1`: greater than 44.1 µg/mL; for `O=C(NC1CC1)c1cccc(NC(=O)c2cn3ccccc3n2)c1`: greater than 48.1 µg/mL.

Regarding `COc1ccccc1N(C)S(=O)(=O)c1ccc(C(=O)Nc2ccc(C(N)=O)cc2)cc1`, the kinetic solubility was found to be 6.1 µg/mL (≈ 13.9 µM). As for `Cn1cnc(S(=O)(=O)Nc2ccc(OC(F)(F)F)cc2)c1`, the solubility (kinetic) came to 39.7 µg/mL (≈ 124 µM). `COC(=O)c1ccc(C(=O)Nc2ccc3c(c2)C(=O)NC3=O)cc1` displayed a kinetic solubility of less than 0.3 µg/mL. Take `COc1ccc(C(=O)/C=C/Nc2ccccn2)c(OC)c1`: the kinetic solubility is 4.2 µg/mL (≈ 14.8 µM). As for `O=C(c1cc(-c2ccc(F)cc2)on1)N1CCOCC1`, the kinetic solubility is greater than 41.4 µg/mL. In turn, `CN(C)C(=S)NC(C)(C)C` returned a solubility (kinetic) of 2.7 µg/mL (≈ 16.8 µM).

As for `CC(=O)c1c(C)n(-c2ccc(Cl)cc2)c2ccc(O)cc12`, the solubility (kinetic) is less than 0.6 µg/mL.

`Cc1ccc(C)c(N(CC(=O)NC2CCCC2)S(=O)(=O)c2ccccc2)c1` gave a kinetic solubility of less than 0.4 µg/mL.

As to `CCS(=O)(=O)N1CCC(C(=O)NCc2ccc3c(c2)OCO3)CC1`, the solubility (kinetic) was greater than 53.2 µg/mL. On to `O=C(COC(=O)c1ccccc1Cl)NCc1ccco1`, for which the kinetic solubility is greater than 44.1 µg/mL. As for `O=C(NCc1ccco1)c1cc(Cl)nc(Cl)c1`, the solubility (kinetic) turned out to be 40.3 µg/mL (≈ 149 µM). With `Cc1cccc(-n2c(O)c(C=NCCN3CCCCC3)c(=O)[nH]c2=O)c1`, the kinetic solubility was greater than 53.5 µg/mL. `Cc1ccc(C(=O)CCc2ccc(N)cc2)cc1` gave a kinetic solubility of 34.9 µg/mL (≈ 146 µM). Turning to `S=c1nc(NCc2cccc(Cl)c2)c2ccccc2[nH]1`, the solubility (kinetic) is 0.5 µg/mL (≈ 1.66 µM). Take `CCOc1ccc(N2C(=O)CSC2=S)cc1`: the kinetic solubility was less than 0.5 µg/mL. The same measure for `O=S(=O)(Cc1ccccc1)N(O)c1ccccc1`: 7 µg/mL (≈ 26.6 µM).

The compound `COc1ccccc1OCC(=O)Nc1ccncc1` had a solubility (kinetic) greater than 38.7 µg/mL. The same measure for `CSc1ccccc1C(=O)NCCCn1ccnc1`: greater than 41.3 µg/mL; for `CC(OC(=O)c1c(F)cccc1F)C(=O)NCCC1=CCCCC1` (centres undefined): greater than 50.6 µg/mL. Turning to `O=C(Cc1ccc(Cl)cc1)Nc1ccc2oc(=O)ccc2c1`, the solubility (kinetic) worked out at 2.9 µg/mL (≈ 9.24 µM). The same measure for `Cc1cccc(N2CC(C(=O)Nc3nccs3)CC2=O)c1C` (centres undefined): 42 µg/mL (≈ 133 µM); for `COc1ccc(/C(N)=N/OC(=O)c2cccs2)cc1`: 35.9 µg/mL (≈ 130 µM). Regarding `CC(C)(C)[C@]1(O)CCN2C[C@H]3c4ccccc4CCc4cccc(c43)[C@@H]2C1.Cl`, the kinetic solubility was found to be 59.3 µg/mL. The compound `O=C(COC(=O)c1cc(Cl)ccc1Cl)NC1CCCC1` displayed a kinetic solubility of 23.8 µg/mL (≈ 75.3 µM). For the compound `COc1ccc(NC(=O)C2CCCC2)cc1`, the solubility (kinetic) was 30.3 µg/mL (≈ 138 µM). Take `CN(CC(=O)c1c(N)n(C)c(=O)n(C)c1=O)c1ccccc1`: the solubility (kinetic) is greater than 45.3 µg/mL. `CCOc1cccc(C=NCCc2ccc(OC)c(OC)c2)c1O`: the kinetic solubility stood at 45.4 µg/mL (≈ 138 µM). With `CCCC(C)NC(=O)CSc1nc2ccc(C)cc2[nH]1` (centres undefined), the solubility (kinetic) was greater than 43.7 µg/mL. Turning to `CC1CC(=O)Nc2ccccc2N1S(=O)(=O)c1ccc(F)cc1F` (centres undefined), the kinetic solubility amounted to 15.6 µg/mL (≈ 44.3 µM). Consider `Cc1ccc(Nc2nc(NCCO)c3ccccc3n2)cc1C.Cl`, for which the solubility (kinetic) was 30.9 µg/mL.

Take `COCCCn1c(=O)c2sccc2n(Cc2ccc(C)cc2)c1=O`: the solubility (kinetic) was less than 0.4 µg/mL.

For `COc1ccc(CN=Cc2c(C(=O)O)[nH]c3ccccc23)cc1`, the solubility (kinetic) was greater than 46.3 µg/mL. In turn, `Cc1ccccc1NC(=O)Cn1c(=O)sc2ccccc21` came in with a solubility (kinetic) of 1.9 µg/mL (≈ 6.37 µM). For the compound `CC(NC(=O)CN1CCOCC1)c1ccccc1` (centres undefined), the kinetic solubility was greater than 37.2 µg/mL.

`CC(OC(=O)[C@@H]1CCCN1C(=O)c1cccs1)C(=O)Nc1cccc([N+](=O)[O-])c1` (some centres undefined): the solubility (kinetic) is 18.4 µg/mL (≈ 44.1 µM). `CCc1ccc(C(=O)Nc2nc3ccccc3[nH]2)cc1` came in with a solubility (kinetic) of 0.5 µg/mL (≈ 1.88 µM). Regarding `CCOC(=O)CN(C#N)c1nc(N(C)C)nc(N(C)C)n1`, the kinetic solubility was determined as 17.8 µg/mL (≈ 60.7 µM). The compound `Cc1ccc(NC(=O)CN2C(=O)S/C(=C\c3ccccn3)C2=O)cc1C` had a solubility (kinetic) of less than 0.3 µg/mL. In turn, `O=C(NCC(=O)N1CC=C(c2ccccc2)CC1)c1ccc(OC(F)F)cc1` yielded a kinetic solubility of 8.2 µg/mL (≈ 21.2 µM).

For `Cc1cccc2nc(-c3ccco3)oc(=O)c12`, the kinetic solubility was 21.6 µg/mL (≈ 95.1 µM).

As to `CC1CC(C)CN(C(=O)COC(=O)c2ccc(S(=O)(=O)N(C)c3ccccc3)cc2)C1` (centres undefined), the solubility (kinetic) stood at 7.8 µg/mL (≈ 17.5 µM). `Nc1ccc(-c2nc3ccccc3s2)cn1` came in with a solubility (kinetic) of 17.7 µg/mL (≈ 77.9 µM). The compound `Cn1cccc1C(=O)Nc1ccc(Cl)c(S(=O)(=O)N2CCCCC2)c1` came in with a kinetic solubility of 8.7 µg/mL (≈ 22.8 µM). The same measure for `CC(=O)c1cccc(NC(=O)Nc2ccccc2)c1`: 10.5 µg/mL (≈ 41.3 µM); for `CCOc1ncccc1C(=O)NCC(c1ccccc1)N(C)C` (centres undefined): greater than 47 µg/mL; for `COc1ccc(S(=O)(=O)N2CCN(C)CC2)cc1`: greater than 40.6 µg/mL. Take `O=C(CSc1nc(O)c(Cc2ccccc2)c(=O)[nH]1)N1CCOCC1`: the kinetic solubility was found to be 40.2 µg/mL (≈ 111 µM). The compound `Cc1[nH]c2ccccc2c1SCC(=O)NC1CCCCC1` returned a kinetic solubility greater than 45.4 µg/mL. `COc1ccc(NC(=O)CSc2nccn2Cc2ccco2)c(OC)c1` came in with a kinetic solubility of 51.9 µg/mL (≈ 139 µM). The compound `S=C([S-])N1CCCC1.[NH4+]` gave a kinetic solubility of 16.6 µg/mL. The compound `Cc1ccccc1CSCC(=O)Nc1ccccc1Br` showed a kinetic solubility of 4.5 µg/mL (≈ 12.8 µM).

`COc1cc(OC)c(CN2CCCN(C)CC2)cc1Br` came in with a kinetic solubility of 44.9 µg/mL (≈ 131 µM).

For the compound `COc1ccc(CNc2nc(NC(C)=O)nn2-c2ccccc2)cc1`, the kinetic solubility is greater than 50.6 µg/mL. In turn, `CSCCC(NC(=O)c1ccco1)C(=O)NC1CCC(C)CC1` (centres undefined) gave a kinetic solubility greater than 50.8 µg/mL. With `CSc1cccc(NC(=S)N2CCC(N(C)C3CCCC3)CC2)c1`, the kinetic solubility is greater than 54.5 µg/mL. `C=CCc1c(Cl)nc(C)nc1NCc1ccccc1` gave a kinetic solubility of 5.8 µg/mL (≈ 21.2 µM). The same measure for `O=C(CN1CCOCC1)Nc1cc(C(F)(F)F)ccc1Cl`: 39.2 µg/mL (≈ 121 µM); for `COc1c(C)cc(C(=O)C2CCCN(C(=O)c3cc4nc(C)cc(C)n4n3)C2)cc1C` (centres undefined): greater than 63.1 µg/mL. In turn, `COc1ccccc1NC(=O)C/C(N)=N/OCC(=O)Nc1cccc(Cl)c1` registered a kinetic solubility greater than 58.6 µg/mL.

In turn, `NC(=O)[C@@H]1CCCN1Cc1nc(Cc2ccccc2F)no1` showed a kinetic solubility greater than 45.6 µg/mL. The same measure for `COC(=O)c1ccccc1NC(=O)NN1CCN(C)CC1`: greater than 43.9 µg/mL; for `O=C(NCc1ccc(Cl)c(Cl)c1)c1ccc2c(c1)OCO2`: 1.5 µg/mL (≈ 4.63 µM); for `C=CCOC(=O)C1=C(C)NC(=O)NC1c1ccc(N(C)C)cc1` (centres undefined): 5.8 µg/mL (≈ 18.4 µM). On to `COCc1cc(OC(=O)N(C)C)nc(-c2ccc(C)c(Cl)c2)n1`, for which the kinetic solubility turned out to be 0.7 µg/mL (≈ 2.08 µM).

`CCN/C=C(\C#N)S(=O)(=O)c1ccc(Br)cc1` came in with a kinetic solubility of 34.8 µg/mL (≈ 110 µM). In turn, `Nc1ncc2c(n1)-c1ccoc1CC2` displayed a solubility (kinetic) greater than 28.1 µg/mL. `COc1ccccc1C(=O)Nc1nc2cc3c(cc2s1)OCO3` returned a solubility (kinetic) of less than 0.4 µg/mL. In turn, `CCC(=NCCc1ccccc1)c1c(O)[nH]c(=O)[nH]c1=O` yielded a kinetic solubility greater than 43.1 µg/mL. Regarding `Clc1ccccc1CN1CCSCC1`, the kinetic solubility was determined as 1.6 µg/mL (≈ 7.02 µM). `Cc1cccc(OC(C)C(=O)Nc2nc(-c3ccncc3)cs2)c1` (centres undefined) displayed a kinetic solubility of 3.4 µg/mL (≈ 10 µM).

In the case of `c1ccc(C2Nc3ccccc3C3OCCCC23)cc1` (centres undefined), the kinetic solubility turned out to be 7.3 µg/mL (≈ 27.5 µM). The same measure for `CC1CCCC(C)N1C(=O)CSc1nc2ccccc2c(=O)[nH]1` (centres undefined): 27.6 µg/mL (≈ 83.3 µM); for `O=C(COC(=O)c1ccc([N+](=O)[O-])o1)NCCCc1ccccc1`: greater than 49.8 µg/mL; for `O=C(c1cc(-c2ccc(Cl)cc2Cl)on1)N1CCCCCC1`: 4.1 µg/mL (≈ 12.1 µM).

Compound `Cc1ccc(C(=O)Nc2cccc3cccnc23)cc1C` had a solubility (kinetic) of less than 0.3 µg/mL. In turn, `CC(C)[C@H](NC(=O)c1ccccc1F)C(=O)OCC(=O)NC(=O)NC1CCCCC1` yielded a solubility (kinetic) of 51.3 µg/mL (≈ 122 µM). Turning to `COc1cccc(C2NC(=O)NC(C)=C2C(=O)OCC2CCCO2)c1` (centres undefined), the kinetic solubility amounted to 44.9 µg/mL (≈ 130 µM).

As to `CCc1ccn2cc(-c3cc(-c4ccccc4)no3)nc2c1`, the kinetic solubility is 1.5 µg/mL (≈ 5.18 µM). Consider `COCCSc1ncnc2c1oc1nc3c(cc12)COC(C)(C)C3`, for which the solubility (kinetic) was 43 µg/mL (≈ 124 µM). For the compound `CNC(=S)/N=C(\Nc1ccc(C)cc1)c1ccccc1`, the kinetic solubility is 1.3 µg/mL (≈ 4.59 µM). For `Cc1ccc(S(=O)(=O)NCCC(=O)NCc2cccnc2)cc1`, the solubility (kinetic) is greater than 50 µg/mL. `Cc1ccc(OCC(O)CNC2CCCC2)c(C)c1.Cl` (centres undefined) gave a kinetic solubility of 41.3 µg/mL. The same measure for `O=C(COC(=O)c1ccc(O)cc1)Nc1ccc(OC(F)F)cc1`: 29.9 µg/mL (≈ 88.7 µM); for `COc1cc([N+](=O)[O-])cc2sc(NC(=O)C(C)(C)C)nc12`: less than 0.2 µg/mL; for `O=C(NC1CCN(CCc2c[nH]c3ccccc23)CC1)c1ccccc1`: 51.7 µg/mL (≈ 149 µM). `COc1cccc(/C=C/C(=O)Nc2ccc3[nH]c(=O)[nH]c3c2)c1`: the kinetic solubility was 6.7 µg/mL (≈ 21.7 µM). As for `CN(Cc1ccccc1)C(=O)COC(=O)CCC(=O)c1ccc(F)cc1`, the kinetic solubility was 14.8 µg/mL (≈ 41.4 µM). `Cc1cccc(N2C(=O)C3CCCN3C2=S)c1C` (centres undefined): the solubility (kinetic) was found to be 38.4 µg/mL (≈ 147 µM). The same measure for `CCCn1nc(Oc2nc(N(C)C)nc(N(C)C)n2)ccc1=O`: greater than 47.9 µg/mL.

Take `Cc1cc(NS(=O)(=O)c2ccc3c(c2)OCCO3)no1`: the solubility (kinetic) is 31.2 µg/mL (≈ 105 µM). The compound `CC1(C)SC[C@H](C(=O)Nc2cccc(Cl)c2)N1C=O` registered a solubility (kinetic) greater than 44.8 µg/mL. Compound `CSCCC(NC(=O)COc1ccccc1)C(=O)O` (centres undefined) yielded a solubility (kinetic) of 31.7 µg/mL (≈ 112 µM). `CC1CCC2C(C1)Nc1c(C(=O)O)cccc1C2(C)C` (centres undefined) returned a kinetic solubility greater than 41 µg/mL. Take `O=S(=O)(Cc1ccc(Cl)cc1)NCc1cccnc1`: the kinetic solubility was greater than 44.5 µg/mL.

For `COc1ccc(CNC(=O)COC(=O)c2sccc2C)cc1OC`, the kinetic solubility came to 12.4 µg/mL (≈ 35.5 µM). The same measure for `COc1cc(C(=O)Nc2ccc(C(=O)c3cccs3)cc2)cc(OC)c1OC`: 8.2 µg/mL (≈ 20.6 µM).
